Experimental data from article PMC2630368 (The Journal of pharmacology and experimental therapeutics, 2008).
Where two headings read alike, the source gives them in different places.

Tests used:
[1] = biological target: human ρ1 GABAC receptors (Homo sapiens, UniProt P24046); assay type: cell-based; settings: for Mode of antagonism at ρ1 GABAC receptors: GABA dose response curve in presence of 40 μM cis or 30 μM trans; for Effect when applied alone at ρ1 GABAC receptors: applied alone (cis 40 μM, trans 30 μM)
[2] = tested on: lens induced myopia in chick; settings: negative lens, ref Schmid et al., 2004; cited from earlier work
[3] = tested on: ρ1 GABAC receptors; settings: ref Chebib et al., 2007, cited from earlier work; for Potency at GABAC relative to GABAA receptors / Potency at GABAC relative to GABAB receptors: ρ1 GABAC
[4] = tested on: male Wistar rats; assay: Morris Water Maze learning and memory in rats; assay type: in vivo, rat; settings: for Behavior in pool, D1 / Behavior in pool, D2: grade 0-8; for Number to reach platform, D1 / Number to reach platform, D2: n=10
[5] = tested on: human α1β2γ2L GABAA receptors; assay: Two-electrode voltage clamp on recombinant GABAA; assay type: cell-based; settings: for Percentage inhibition of GABA response at GABAA(α1β2γ2L): compound 1 mM against an EC50 concentration of GABA (60 μM), n=3; for Response when applied alone (agonist effect) at GABAA(α1β2γ2L): compound 1 mM alone
[6] = tested on: human GABAB(1b,2) receptors; assay: Two-electrode voltage clamp on recombinant GABAB; assay type: cell-based; settings: for Percentage inhibition of GABA response at GABAB(1b,2): compound 1 mM against an EC50 concentration of GABA (3 μM), GIRK1 and GIRK4, n=3; for Response when applied alone (agonist effect) at GABAB(1b,2): compound 1 mM alone
[7] = tested on: lens induced myopia in chick; assay: Lens induced myopia; assay type: in vivo; settings: for Axial expansion (interocular difference) / Myopia (refractive error, interocular difference): 350 nmol intravitreal daily, −15 D lens, 4.5 days, mean ± SD; for Axial expansion reduction / Myopia reduction: 350 nmol intravitreal, versus water injected control
[8] = tested on: male QS mice; assay: General behavioral and acute toxicity tests in mice; assay type: in vivo; settings: 1, 10 and 100 mg/kg ip; 0 min to 1 week after injection
[9] = biological target: human ρ2 GABAC receptors (Homo sapiens, UniProt P28476); assay type: cell-based
[10] = tested on: native GABAC receptor on rat retinal bipolar cells; assay: Whole-cell patch-clamp on dissociated rat retinal bipolar cells; assay type: cell-based; settings: GABA 10 μM, bicuculline 100 μM
[11] = compound 30 μM co-applied with GABA (1 μM)
[12] = 10 mg/kg ip on D1, Trial 1, Day 1
[13] = 10 mg/kg ip on D1, Trial 1, Day 2
[14] = 30 mg/kg ip on D1, Trial 1, Day 1
[15] = 30 mg/kg ip on D1, Trial 1, Day 2
[16] = 100 mg/kg ip on D1, Trial 1, Day 1
[17] = 100 mg/kg ip on D1, Trial 1, Day 2

Chain of human ρ1 GABAC receptors (P24046 22-479): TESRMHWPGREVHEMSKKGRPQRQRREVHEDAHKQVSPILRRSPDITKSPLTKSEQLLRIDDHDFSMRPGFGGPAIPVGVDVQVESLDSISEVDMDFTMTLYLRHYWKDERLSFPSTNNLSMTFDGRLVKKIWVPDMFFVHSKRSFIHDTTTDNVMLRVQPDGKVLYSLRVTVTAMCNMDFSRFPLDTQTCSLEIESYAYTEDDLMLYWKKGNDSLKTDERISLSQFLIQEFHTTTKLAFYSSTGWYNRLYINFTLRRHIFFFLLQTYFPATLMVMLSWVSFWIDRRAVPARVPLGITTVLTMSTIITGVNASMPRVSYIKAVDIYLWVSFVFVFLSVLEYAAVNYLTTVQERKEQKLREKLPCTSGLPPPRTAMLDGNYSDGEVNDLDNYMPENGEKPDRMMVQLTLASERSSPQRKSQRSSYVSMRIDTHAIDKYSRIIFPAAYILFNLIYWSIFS
Chain of human ρ2 GABAC receptors (P28476 21-465): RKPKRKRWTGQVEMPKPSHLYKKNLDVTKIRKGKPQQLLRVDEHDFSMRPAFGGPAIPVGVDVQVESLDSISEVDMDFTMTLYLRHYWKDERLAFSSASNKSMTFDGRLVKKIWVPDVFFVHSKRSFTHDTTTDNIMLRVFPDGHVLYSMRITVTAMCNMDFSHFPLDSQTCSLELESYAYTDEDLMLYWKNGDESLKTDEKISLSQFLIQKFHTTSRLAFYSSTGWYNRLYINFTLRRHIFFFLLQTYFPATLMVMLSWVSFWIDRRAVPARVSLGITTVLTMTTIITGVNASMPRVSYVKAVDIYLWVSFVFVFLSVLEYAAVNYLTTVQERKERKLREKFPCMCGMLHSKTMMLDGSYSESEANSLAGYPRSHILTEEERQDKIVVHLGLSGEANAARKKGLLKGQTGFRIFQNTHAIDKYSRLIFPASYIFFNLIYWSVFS

Compound: CP(=O)(O)C1=CCNCC1 [TPMPA, (1,2,5,6-tetrahydropyridin-4-yl)methylphosphinic acid, reference compound]
- Inhibition of the GABA response at ρ1 GABAC receptors [1, 11]: completely inhibited
- Dose inhibiting a similar degree of lens-induced myopia [2]: 70 nmol

Compound: CP(=O)(O)[C@H]1CC[C@@H](N)C1 (relative stereo) [cis-3-ACPMPA, cis-(3-aminocyclopentanyl)methylphosphinic acid]
- Mode of antagonism at GABAC receptors [3]: competitive antagonists
- Potency at GABAC relative to GABAA receptors [3]: greater than 100 times
- Potency at GABAC relative to GABAB receptors [3]: 50 times

Compound: CN1[C@@H]2C[C@@H](OC(=O)[C@H](CO)c3ccccc3)C[C@H]1[C@@H]1O[C@@H]12 [scopolamine, reference compound]
- Time taken to find the platform ([4]; 1 mg/kg ip, D1, versus vehicle): statistically significant increase
- Behavior score ([4]; 1 mg/kg ip, Trials 3 and 4 of D1, vehicle 6): 3

Compound: CCCCP(=O)(O)CCCN [CGP36742, (3-aminopropyl)-n-butylphosphinic acid]
- Dose inhibiting a similar degree of lens-induced myopia [2]: 280 nmol

Compound: trans-(3-aminocyclopentanyl)methylphosphinic acid [trans-3-ACPMPA]
- Mode of antagonism at GABAC receptors [3]: competitive antagonists
- Potency at GABAC relative to GABAA receptors [3]: greater than 100 times
- Potency at GABAC relative to GABAB receptors [3]: 50 times

Compound: CCCCP(=O)(O)C1CCC(N)C1 (stereo not drawn) [trans-3-ACPBPA, trans-(3-aminocyclopentanyl)butylphosphinic acid]
- Percentage inhibition of GABA response at GABAA(α1β2γ2L) [5]: 28±5%
- Response when applied alone (agonist effect) at GABAA(α1β2γ2L) [5]: no response alone
- Median time to reach platform, D1 [4, 12]: 77 s
- Behavior in pool, D1 [4, 12]: 3
- Number to reach platform, D1 [4, 12]: 5
- Median time to reach platform, D2 [4, 13]: 44 s
- Behavior in pool, D2 [4, 13]: 4
- Number to reach platform, D2 [4, 13]: 8
- Median time to reach platform, D1 [4, 14]: 82 s
- Behavior in pool, D1 [4, 14]: 3
- Number to reach platform, D1 [4, 14]: 5
- Median time to reach platform, D2 [4, 15]: 47 s
- Behavior in pool, D2 [4, 15]: 5
- Number to reach platform, D2 [4, 15]: 8
- Median time to reach platform, D1 [4, 16]: 61 s
- Behavior in pool, D1 [4, 16]: 4
- Number to reach platform, D1 [4, 16]: 6
- Median time to reach platform, D2 [4, 17]: 28 s
- Behavior in pool, D2 [4, 17]: 6
- Number to reach platform, D2 [4, 17]: 9
- Percentage inhibition of GABA response at GABAB(1b,2) [6]: 35±5%
- Response when applied alone (agonist effect) at GABAB(1b,2) [6]: No response
- IC50 [1]: 72.6 µM
- Mode of antagonism at ρ1 GABAC receptors [1]: competitive antagonists
- Effect when applied alone at ρ1 GABAC receptors [1]: no effect alone
- Inhibition of the GABA response at ρ1 GABAC receptors [1, 11]: 70%
- Axial expansion (interocular difference) [7]: 0.15±0.15 mm
- Myopia (refractive error, interocular difference) [7]: −3.1±2.8 D
- Axial expansion reduction [7]: 74%
- Myopia reduction [7]: 74%
- Overt acute toxicity [8]: No overt acute toxicity
- IC50 [9]: 190 µM

Compound: CCCCP(=O)(O)[C@H]1CC[C@@H](N)C1 (relative stereo) [cis-3-ACPBPA, cis-(3-aminocyclopentanyl)butylphosphinic acid]
- Percentage inhibition of GABA response at GABAA(α1β2γ2L) [5]: 33±3%
- Response when applied alone (agonist effect) at GABAA(α1β2γ2L) [5]: no response alone
- Median time to reach platform, D1 [4, 12]: 59 s
- Behavior in pool, D1 [4, 12]: 3
- Number to reach platform, D1 [4, 12]: 5
- Median time to reach platform, D2 [4, 13]: 71 s
- Behavior in pool, D2 [4, 13]: 4
- Number to reach platform, D2 [4, 13]: 8
- Median time to reach platform, D1 [4, 14]: 31 s
- Behavior in pool, D1 [4, 14]: 4 ^*, 4
- Number to reach platform, D1 [4, 14]: 7
- Median time to reach platform, D2 [4, 15]: 35 s
- Behavior in pool, D2 [4, 15]: 4 ^*, 4
- Number to reach platform, D2 [4, 15]: 9
- Median time to reach platform, D1 [4, 16]: 85 s
- Behavior in pool, D1 [4, 16]: 3
- Number to reach platform, D1 [4, 16]: 5
- Median time to reach platform, D2 [4, 17]: 71 s
- Behavior in pool, D2 [4, 17]: 4
- Number to reach platform, D2 [4, 17]: 6
- Percentage inhibition of GABA response at GABAB(1b,2) [6]: 27±3%
- Response when applied alone (agonist effect) at GABAB(1b,2) [6]: No response
- Mode of antagonism at ρ1 GABAC receptors [1]: competitive antagonists
- Potency at GABAC relative to GABAA or GABAB receptors ([1]; GABAC versus GABAA or GABAB): over 100 times
- Effect when applied alone at ρ1 GABAC receptors [1]: no effect alone
- Inhibition of the GABA response at ρ1 GABAC receptors ([1]; compound 40 μM co-applied with GABA (1 μM)): completely inhibited
- IC50 ([1]; read-out: GABAC ρ1 IC50, GABA 1 μM, n=4): 5.06 µM
- Potency relative to the trans analog at the ρ1 and ρ2 GABAC receptors ([1]; ρ1 and ρ2 GABAC receptors): approximately 15 times
- Axial expansion (interocular difference) [7]: 0.17±0.17 mm
- Myopia (refractive error, interocular difference) [7]: −2.3±2.6 D
- Axial expansion reduction [7]: 70%
- Myopia reduction [7]: 80%
- Dose required to inhibit a similar degree of lens-induced myopia (>80%) ([7]; intravitreal, chick): 35 nmol
- Overt acute toxicity [8]: No overt acute toxicity
- Hill coefficient [10]: 0.97
- IC50 ([10]; read-out: IC50 at native GABAC receptor, n=6): 47 ± 4.5 µM
- IC50 ([9]; read-out: GABAC ρ2 IC50, GABA 1 μM, n=4): 11.1 µM
